Experimental data from US8440423B2, “Bioremediation of nanomaterials” (U.S. Department of Energy, priority 2007, dated 2013).

Key:
Solubility in water = assay type: physicochemical
mouse skin = settings: repeating subchronic topical dose on mouse skin for up to 24 weeks; cited from earlier work
Escherichia coli W3110 = test: Growth of E. coli W3110 in minimal [3-13C]L-lactate medium with nanoparticles added (OD600); assay type: cell-based
Procedure: (§1) Tracer Experiments. Shewanella oneidensis MR-1 and Escherichia coli W3110 were cultured in minimal medium (described in Tang, Y. J. J.; Laidlaw, D.; Gani, K.; Keasling, J. D. Biotechnology and Bioengineering 2006, 95, (1), 176-184) and hereby incorporated by reference). The medium was supplied with 30 mM (98% [3-^13C]L-lactate) (Cambridge Isotope, USA) as the sole carbon source to support cell growth. The inoculum was prepared in LB medium, which was grown overnight. This culture was inoculated into the minimal medium with a 0.09% inoculation volume. Both S. oneidensis and E. coli were cultured in shake flasks at 30° C. (at 200 rpm in dark). The fullerene compounds (C60, C60—OH, C60—COOH and C60-NH2) were added to the medium to different final concentrations (from 1 mg/L to 80 mg/L) before the exponential phase (OD600=0.09˜0.10). The culture's optical density at a wavelength of 600 nm (OD600) was measured in a spectrophotometer (DU®640, Beckman Instruments, Palo Alto, Calif.) every 2-3 hours. The carbon source (lactate) concentrations at each time point were determined using an enzyme test kit (r-Biopharm Inc., Darmstadt, Germany).
We used minimal medium containing [3-^13C]L-lactate to grow both organisms and test the impact of fullerenes (concentrations range from 0˜80 mg/l) on their growth. […]

[1] = system: 22 collection strains including E coli, B. subtilis, etc.; settings: ~43 mg/L; cited from earlier work
E. coli, and B. subtilis = settings: up to 5 mg/L; cited from earlier work
[2] = system: Shewanella oneidensis MR-1; test: Growth of S. oneidensis MR-1 in minimal [3-13C]L-lactate medium with nanoparticles added (OD600); assay type: cell-based
Procedure: as §1
We used minimal medium containing [3-^13C]L-lactate to grow both organisms and test the impact of fullerenes (concentrations range from 0˜80 mg/l) on their growth. Since C60 is not soluble in water and cannot be uniformly suspended in the culture solution, we only applied concentrations less than 20 mg/L in the studies of non-derivatized C60.

c12c3c4c5c1c1c6c7c2c2c8c3c3c9c4c4c%10c5c5c1c1c6c6c%11c7c2c2c7c8c3c3c8c9c4c4c9c%10c5c5c1c1c6c6c%11c2c2c7c3c3c8c4c4c9c5c1c1c6c2c3c41 [C60, C60 fullerene]
solubility in water (Solubility in water): not soluble | carcinogenicity (mouse skin): non-carcinogenic | E. coli growth course after addition of nanoparticles (Escherichia coli W3110; 20 mg/L and 40 mg/L, FIG. 4a): slowed after addition of nanoparticles, then resumed their normal growth rate | E. coli growth inhibition (Escherichia coli W3110; concentrations up to 80 mg/L (C60 less than 20 mg/L), FIG. 3a): did not significantly inhibit | Conclusions: effect on 22 collection strains [1]: No effect | Conclusions: effect on growth of prokaryotic microorganisms (E. coli, and B. subtilis): inhibitory to | effect on S. oneidensis MR-1 (growth), summary statement [2]: mild negative effects | S. oneidensis growth course after addition of nanoparticles ([2]; 20 mg/L and 40 mg/L, FIG. 4b): slowed after addition of nanoparticles, then resumed their normal growth rate | S. oneidensis growth inhibition ([2]; concentrations up to 80 mg/L (C60 less than 20 mg/L), FIG. 3b): did not significantly inhibit
